The structures appear in SMILES notation. “And” between values parts separate entries of the source, which are not always exact repeats. Equal values may be shown once.

The subject of data set [1] is acetic acid-induced writhing. In words: Analgesia, acetic acid writhing in mice (Example 3). Type of data set: in vivo, mouse. Conditions: 100 mg/kg PO. How it is done:
3-Hydroxyanthranilic acid was evaluated for possible analgesic activity in mouse acetic acid-induced pain response assay.
3-Hydroxyanthranilic acid was purchased from Sigma (USA) by MDS Pharma Services-Taiwan Ltd. and administered orally at the doses of 400, 200 and 100 mg/kg for analgesia, acetic acid-induced writhing assay. 2% Tween 80 was used as the vehicle.
Male CD-1 (Crl.) mice provided by BioLasco Taiwan (under Charles River Laboratories Technology Licensee) were used. Space allocation for 10 animals was 29×18×13 cm. All animals were maintained in a controlled temperature (23° C.-24° C.) and humidity (60%-70%) environment with 12 hours light dark cycles for at least one week in MDS Pharma Services—Taiwan Laboratory prior to use. Free access to standard lab chow for Mice (LabDiet Rodent Diet, PMI Nutrition International, USA) and tap water was granted. All aspects of this work including housing, experimentation and disposal of animals were performed in general accordance with the Guide for the Care and Use of Laboratory Animals (National Academy Press, Washington, D.C., 1996).
Test substance was administered orally to groups of 5 CD-1 (Crl.) derived male or female mice weighing 24±2 g, 2 hour before injection of acetic acid (0.5%, 20 ml/kg IP). Reduction in the number of writhes by 50 percent or more (≧50%) per group of animals observed during the 5 to 10 minute period after acetic acid administration, relative to a vehicle-treated control group, indicates possible analgesic activity.
Test substance was administered orally to groups of 5 mice 1 hour before injection of 0.5% Acetic Acid (20 ml/kg IP). The number of writhing per group of animals observed during the 5 to 10 minute period after acetic acid challenge was observed. Reduction in the number of writhing by 50 percent or more (≧50%) relative to the vehicle-treated control group indicates possible analgesic activity.

The subject of data set [2] is acetic acid-induced writhing. In words: Analgesia, acetic acid writhing in mice (Assay #503900, Example 1). Format: in vivo, mouse. The conditions noted are these: 30 mg/kg PO, 60 minutes before acetic acid.
The conditions of data set [3]: patients in a colorectal adenoma prevention trial; cited from earlier work.
The conditions of data set [4]: similar adenoma prevention trial; cited from earlier work.
The conditions of data set [5]: short-term use following coronary artery by-pass surgery; cited from earlier work.

Turning to `CC(=O)Oc1ccccc1C(=O)O` [Aspirin], in data set [1] (group of 5 mice), the “No. of Writhing Average” value stood at 5. For the same compound, in data set [1] (relative to vehicle control), the “% Inhibition” value is “(62) %”. Besides, the “No. of Writhing Individual” value in data set [1] (single mice) was 0 and 8 and 3 and 7 and 9. For `CC(C)Cc1ccc(C(C)C(=O)O)cc1` (stereo not shown) [Ibuprofen], the “No. of Writhing Average” value in data set [2] (group of 5 mice) is on record as 8. In data set [2] (relative to vehicle control), the “% Inhibition” value is “(53) %”. Besides, in data set [2] (single mice), the “No. of Writhing Individual” value was 6 and 8 (2×) and 10 (2×). In the case of `CS(=O)(=O)c1ccc(C2=C(c3ccccc3)C(=O)OC2)cc1` [Rofecoxib, rofecoxib], the “risk of heart attacks or strokes” value in data set [3] is reported as “double the risk”. For the compound `Cc1ccc(-c2cc(C(F)(F)F)nn2-c2ccc(S(N)(=O)=O)cc2)cc1` [celecoxib], the “risk of adverse cardiovascular events” value in data set [4] is given as “triple the risk”. With `CCC(=O)NS(=O)(=O)c1ccc(-c2c(-c3ccccc3)noc2C)cc1` [parecoxib], the “incidence of cardiovascular events” value in data set [5] was “increased incidence”.

With `Cc1onc(-c2ccccc2)c1-c1ccc(S(N)(=O)=O)cc1` [valdecoxib], the “incidence of cardiovascular events” value in data set [5] was “increased incidence”.

(Values after US20090197957A1, “Methods and compositions for the treatment of pain” (Nuon Therapeutics, Inc., priority 2005, published 2009).)
